The test system of data set [1] is serotonin release in the cortex. The following applies: after systemic administration; cited from earlier work.
Data set [2] has as its system serotonin release in the dorsal raphe nucleus. Conditions: rat; combined with paroxetine; cited from earlier work.

Compound `CCOC(=O)N1Cc2sc3ncn(CCN4CCN(c5ccccc5C)CC4)c(=O)c3c2C1` registered a melting point of 152 °C.
In turn, `CCOC(=O)N1Cc2sc3ncn(CCN4CCN(c5ncccn5)CC4)c(=O)c3c2C1` registered a melting point of 166 °C.
Take `COc1ccc(NC(=O)c2ccc(-c3ccc(-c4noc(C)n4)cc3C)cc2)cc1N1CCN(C)CC1` [GR 127 935]: the “serotonin release in the cortex” value in data set [1] is “reduces serotonin release”. Besides, the “effect of paroxetine on serotonin release in the dorsal raphe nucleus” value in data set [2] is given as “potentiated”.
Consider `CCOC(=O)N1Cc2sc3ncn(CCN4CCN(c5cccc6c5CCC6)CC4)c(=O)c3c2C1`, for which the melting point stood at 149 °C.
Still for that read-out and setting: the result for `CCOC(=O)N1Cc2sc3ncn(CCCN4CCN(c5ccccc5C#N)CC4)c(=O)c3c2C1` reads 190 °C.
In the case of `CCOC(=O)N1Cc2sc3ncn(CCN4CCN(c5ccccc5Cl)CC4)c(=O)c3c2C1`, the melting point worked out at 172 °C.
Turning to `CCOC(=O)N1Cc2sc3ncn(CCN4CCN(c5cccc6ccccc56)CC4)c(=O)c3c2C1`, the melting point lay in the range of 190 to 192 °C.

The record behind these values is patent US6355647B1, “3-substituted 3,4,5,7-tetrahedropyrrolo[3′,4′:4,5]thieno-[2,3-d]pyrimidine derivatives, their preparation and use” (Abbott Laboratories, priority 1997, dated 2002).
